Measurements taken from patent publication US6914045B2, “Glycopeptide antibiotics” (Wyeth Holdings Corporation, priority 2001, dated 2005).
Converted amounts (≈) assume the structure as drawn.

Key:
Assay in all cases: in vitro antibacterial evaluation, MIC by broth dilution
Assay type in all cases: cell-based
[1] = system: Streptococcus sp.; settings: broth dilution, 18 hours at 35° C.
Outline: (§1)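 Step 1: dilute antibiotic across 64-0.06 μg/mL in Muller-Hinton II […]. Step 2: inoculate at 5×10^5 CFU/mL.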

[2] = system: Staphylococcus sp.; settings: broth dilution, 18 hours at 35° C.; for MIC Staphylococcus aureus (GC 1131): strain GC 1131
Outline: as §1

[3] = system: Enterococcus sp.; settings: broth dilution, 18 hours at 35° C.
Outline: as §1

[4] = system: Escherichia coli; settings: 18 hours at 35° C.

MIC Streptococcus agalactiae (GC 4564) [1]: <0.12 µg/mL
MIC Streptococcus pneumoniae (ATCC 6301) [1]: <0.12 µg/mL
MIC Streptococcus pneumoniae (GC 1894) [1]: <0.12 µg/mL
MIC Streptococcus pneumoniae (GC 4565) [1]: <0.12 µg/mL
MIC Streptococcus pyogenes (GC 4563) [1]: <0.12 µg/mL
MIC Streptococcus pneumoniae (ATCC 6301) ([1]; inoculum 5×10^5 CFU/mL, strain ATCC 6301): <0.12 µg/mL
MIC Streptococcus pneumoniae (GC 1894) ([1]; inoculum 5×10^5 CFU/mL, strain GC 1894): <0.12 µg/mL
MIC Streptococcus pyogenes (GC 4563) ([1]; inoculum 5×10^5 CFU/mL, strain GC 4563): <0.12 µg/mL
MIC Streptococcus agalactiae (GC 4564) ([1]; inoculum 5×10^5 CFU/mL, strain GC 4564): <0.12 µg/mL
MIC Streptococcus pneumoniae (GC 4565) ([1]; inoculum 5×10^5 CFU/mL, strain GC 4565): <0.12 µg/mL
MIC Staphylococcus aureus (GC 1131) ([2]; inoculum 5×10^5 CFU/mL): 1 µg/mL (≈ 0.713 µM)
MIC Staphylococcus aureus (ATCC 29213) ([2]; strain ATCC 29213): 0.5 µg/mL (≈ 0.356 µM)
MIC Staphylococcus aureus (GC 1131) [2]: 1 µg/mL (≈ 0.713 µM)
MIC Staphylococcus aureus (GC 3051) ([2]; strain GC 3051): 0.5 µg/mL (≈ 0.356 µM)
MIC Staphylococcus aureus (GC 3053) ([2]; strain GC 3053): 0.5 µg/mL (≈ 0.356 µM)
MIC Staphylococcus aureus (GC 4541) ([2]; strain GC 4541): 0.5 µg/mL (≈ 0.356 µM)
MIC Staphylococcus aureus (GC 4542) ([2]; strain GC 4542): 0.25 µg/mL (≈ 0.178 µM)
MIC Staphylococcus aureus-SMITH (GC 4543) ([2]; strain GC 4543): 0.5 µg/mL (≈ 0.356 µM)
MIC Staphylococcus aureus (GC 4544) ([2]; strain GC 4544): 0.5 µg/mL (≈ 0.356 µM)
MIC Staphylococcus aureus (GC 4545) ([2]; strain GC 4545): 0.5 µg/mL (≈ 0.356 µM)
MIC Coagulase Negative Staphylococcus (GC 4547) ([2]; strain GC 4547): 1 µg/mL (≈ 0.713 µM)
MIC Coagulase Negative Staphylococcus (GC 4548) ([2]; strain GC 4548): <0.12 µg/mL
MIC Coagulase Negative Staphylococcus (GC 4549) ([2]; strain GC 4549): 0.5 µg/mL (≈ 0.356 µM)
MIC Coagulase Negative Staphylococcus (GC 4551) ([2]; strain GC 4551): 0.5 µg/mL (≈ 0.356 µM)
MIC Enterococcus avium (GC 4558) [3]: 1 µg/mL (≈ 0.713 µM)
MIC Enterococcus faecalis (ATCC 29212) [3]: 1 µg/mL (≈ 0.713 µM)
MIC Enterococcus faecalis (GC 2242) [3]: 1 µg/mL (≈ 0.713 µM)
MIC Enterococcus faecalis (GC 2691) [3]: 1 µg/mL (≈ 0.713 µM)
MIC Enterococcus faecalis (GC 3059) [3]: 1 µg/mL (≈ 0.713 µM)
MIC Enterococcus faecalis (GC 4552) [3]: 1 µg/mL (≈ 0.713 µM)
MIC Enterococcus faecalis (GC 4553) [3]: 1 µg/mL (≈ 0.713 µM)
MIC Enterococcus faecalis (GC 4554) [3]: 1 µg/mL (≈ 0.713 µM)
MIC Enterococcus faecalis (GC 6189) [3]: 1 µg/mL (≈ 0.713 µM)
MIC Enterococcus faecium (GC 2243) [3]: 1 µg/mL (≈ 0.713 µM)
MIC Enterococcus faecium (GC 4556) [3]: 1 µg/mL (≈ 0.713 µM)
MIC Enterococcus faecium (GC 4557) [3]: 1 µg/mL (≈ 0.713 µM)
MIC Enterococcus faecalis (ATCC 29212) ([3]; inoculum 5×10^5 CFU/mL, strain ATCC 29212): 1 µg/mL (≈ 0.713 µM)
MIC Enterococcus faecalis (GC 2242) ([3]; inoculum 5×10^5 CFU/mL, strain GC 2242): 1 µg/mL (≈ 0.713 µM)
MIC Enterococcus faecium (GC 2243) ([3]; inoculum 5×10^5 CFU/mL, strain GC 2243): 1 µg/mL (≈ 0.713 µM)
MIC Enterococcus faecalis (GC 2691) ([3]; inoculum 5×10^5 CFU/mL, strain GC 2691): 1 µg/mL (≈ 0.713 µM)
MIC Enterococcus faecalis (GC 3059) ([3]; inoculum 5×10^5 CFU/mL, strain GC 3059): 1 µg/mL (≈ 0.713 µM)
MIC Enterococcus faecalis (GC 4552) ([3]; inoculum 5×10^5 CFU/mL, strain GC 4552): 1 µg/mL (≈ 0.713 µM)
MIC Enterococcus faecalis (GC 4553) ([3]; inoculum 5×10^5 CFU/mL, strain GC 4553): 1 µg/mL (≈ 0.713 µM)
MIC Enterococcus faecalis (GC 4554) ([3]; inoculum 5×10^5 CFU/mL, strain GC 4554): 1 µg/mL (≈ 0.713 µM)
MIC Enterococcus faecium (GC 4556) ([3]; inoculum 5×10^5 CFU/mL, strain GC 4556): 1 µg/mL (≈ 0.713 µM)
MIC Enterococcus faecium (GC 4557) ([3]; inoculum 5×10^5 CFU/mL, strain GC 4557): 1 µg/mL (≈ 0.713 µM)
MIC Enterococcus avium (GC 4558) ([3]; inoculum 5×10^5 CFU/mL, strain GC 4558): 1 µg/mL (≈ 0.713 µM)
MIC Enterococcus faecalis (GC 6189) ([3]; inoculum 5×10^5 CFU/mL, strain GC 6189): 1 µg/mL (≈ 0.713 µM)
MIC Escherichia coli (ATCC 25922) [4]: 32 µg/mL (≈ 22.8 µM)
MIC Escherichia coli (GC 4559) [4]: 32 µg/mL (≈ 22.8 µM)
MIC Escherichia coli (GC 4560) [4]: 1 µg/mL (≈ 0.713 µM)
SMILES: N=C1NCC(C(O)C2NC(=O)C(Cc3ccc(OC4OC(CO)C(OC5OC6COC(CCc7ccccc7)OC6C(O)C5O)C(O)C4O)cc3)NC(=O)C(CC3CCCCC3)NC(=O)CNC(=O)C(CO)NC(=O)C(C(O)C3CNC(=N)N3C3OC(CO)C(O)C(O)C3O)NC2=O)N1 (stereo not shown) [Example 198]
MIC Staphylococcus haemolyticus (GC 4546) ([2]; strain GC 4546): 0.5 µg/mL (≈ 0.356 µM)
